Results from US20200375958A1, “MEMBRANE ACTIVE MOLECULES” (priority 2017, published 2020).
Values joined by “and” are separate entries in the source; they are usually repeats but may differ in a detail not shown here. Equal entries are not always repeated.

What was measured:
Tadpoles = assay: Tadpole anesthesia test (movement suppressed on contact with rod); type: in vivo; conditions: read-out: Movement suppressed (%)
Protocol: Tadpoles were placed in a petri dish containing aquarium water. Four to eight tadpoles were placed in each petri dish. The aquarium water contained the specified test compound at the listed concentration. When the tadpoles stopped moving, a plastic rod was used to elicit motion once again by contact between the rod and tadpole. […] From this and the number of subjects, the percent of tadpoles in which movement was suppressed were calculated.
After 1 to 30 minutes, they were again contacted with a rod to ensure the anesthetic effect had worn off.
In some examples, subanesthetic concentrations of ethanol were added into the aquarium water. Tadpoles in which movement was prevented with exposure to a test compound and ethanol but not with exposure to a test compound alone were classified as partial anesthetics.

mouse = system: mouse
Protocol: Butyric acid was dissolved in water to form an 8 M solution. 0.5 mL of the 8 M solution of butyric acid was injected subcutaneously (at the back of the neck) into the mouse.
3-hydroxybutyric acid was dissolved in water to form 1 M, 1.5 M, and 2 M solutions. 0.2 mL of a 1.5 M solution of 3-hydroxybutyric acid was injected into a tail vein of a CD-1 mouse. […] This was repeated for at least 2 more times on subsequent days.
Ethylmalonic acid was dissolved in water to form 2 M, 3 M, and 4 M solutions. 0.2 mL of a 3 M solution of ethylmalonic acid was injected into a tail vein of a mouse. […] This was repeated for at least 2 more times on subsequent days.
Ethylmalonic acid was dissolved in water to form a 4 M solution. 0.5 mL of the 4 M solution of ethylmalonic acid was injected subcutaneously into the mouse.

CF-1 mice = assay: Anticonvulsant test in mice: metrazol (pentylenetetrazol) tail vein infusion, time to twitch and seizure; type: in vivo, mouse; conditions: 8 M butyric acid solution plus metrazol
Protocol: CF-1 mice were used in this study. Number 20 PE tubing to cannulate a mouse tail vein was used. An infusion pump was used to deliver a solution at a rate of 0.34 mL/min. A hemostat was used to prevent backflow in the PE tubing before the experiment stated. To begin the experiment, the hemostat that was clamped to the PE 20 tubing was removed, the infusion of the solution was started into the tail IV of the mouse, and the timer was started.
The study reflects the time in seconds from the start of the infusion to the time of twitch and onset of seizure, or 90 seconds, whichever is sooner. When the seizure occurs, the infusion is turned off.
As a control, metrazol (pentylenetetrazol) in a 0.5% solution (5 mg/mL) in water was prepared. Pentylenetetrazol is used as a control to study seizure phenomena in and to identify compounds that may control seizure susceptibility. Solutions of 8 M butyric acid and 1.5 M 3-hydroxybutyric acid were made.
The time to twitch and time to seizure of the mouse in seconds is recorded in Tables 3-5, below.

[1] = 0.5 mL of 8 M solution in water, subcutaneous (back of the neck)

Structure (SMILES): CCCC(=O)O [Butyric acid]
- responders at 62500 µM (Tadpoles): 100%
- responders at 125000 µM (Tadpoles): 100%
- responders at 250000 µM (Tadpoles): 100%
- responders at 500000 µM (Tadpoles): 100%
- Lethality to the mouse (mouse; 0.2 mL of 8 M solution in water, intravenous, tail vein): lethal
- Anesthetic effect on the mouse (mouse; [1]): became anesthetized or lost consciousness
- Time until mouse became anesthetized or lost consciousness (mouse; [1]): 10 to 15 min
- Time until mouse woke up (mouse; [1]): several hours
- Butyric Acid and Metrazol Time to Seizures (seconds), Avg. (CF-1 mice; average of 13 mice): 51.2 s
- Butyric Acid and Metrazol Time to Twitch (seconds), Avg. (CF-1 mice; average of 13 mice): 41.4 s
- Butyric Acid and Metrazol Time to Seizures (CF-1 mice; individual mice): 51 seconds and 50 seconds (2×) and 47 seconds and 57 seconds (3×) and 42 seconds and 66 seconds and 41 seconds and 44 seconds and 38 seconds and 65 seconds
- Butyric Acid and Metrazol Time to Twitch (CF-1 mice; individual mice): 38 seconds and 42 seconds and 44 seconds and 50 seconds and 34 seconds (2×) and 53 seconds (2×) and 48 seconds and 36 seconds (2×) and 35 seconds (2×)
